{
  "source": "patent US20170334877A1",
  "about": "“REVAPRAZAN HYDROCHLORIDE POLYMORPHS AND PREPARATION METHOD THEREFOR” (JIANGSU TASLY DIYI PHARMACEUTICAL CO., LTD., priority 2014, published 2017)",
  "key": {"[1]": {"test": "Light illumination test (intense light, 4500±500 Lx)", "format": "physicochemical", "settings": "for Appearance color / Loss on drying (%) / Purity (%) / Relevant substances: light 4500±500 Lx; for Loss on drying (%) / Purity (%) / Relevant substances: hydrochloride", "description": "Revaprazan hydrochloride crystalline form I is irradiated under such a condition that the light intensity is 4500±500 Lx, and is sampled on the 5th day and 10th day for detection, and the results are shown in Table 1. Revaprazan hydrochloride crystalline form II is irradiated under the condition that the light intensity is 4500±500Lx, and is sampled on the 5th day and 10th day for detection. Revaprazan hydrochloride polymorph III is irradiated under such a condition that the light intensity is 4500±500Lx, and is sampled on the 5th day and 10th day for detection. Revaprazan hydrochloride […] is irradiated under such a condition that the light intensity is 4500±500Lx, and is sampled on the 5th day and the 10th day for detection. Revaprazan hydrochloride crystalline form V is irradiated under the light intensity condition of 4500±500Lx; and is sampled on the 5th day and 10th day for detection."}, "[2]": {"test": "Accelerated test (40±2° C., relative humidity 75±5%, 6 months, sealed polyethylene film bag)", "format": "physicochemical", "settings": "for Appearance color / Purity (%) / Relevant substances: 40±2° C., RH 75±5%; for Purity (%) / Relevant substances: hydrochloride", "experimental": "Revaprazan hydrochloride crystalline form I is sealed in a polyethylene film bag, is placed for 6 months under the conditions that the temperature is 40±2° C. and the relative humidity is 75±5%, and is respectively sampled at the end of the 1st Month, the 2nd Month, the 3rd Month and the 6^thMonth for detection; and the results are shown in Table 4. Revaprazan hydrochloride crystalline form II is sealed in a polyethylene film bag and is placed for 6 months under the conditions that the temperature is 40±2° C. and the relative humidity is 75±5%, and is respectively sampled at the end of the 1st Month, the 2nd Month, the 3rd Month and the 6th Month for detection; and the results are shown in Table 8. Revaprazan hydrochloride crystalline form III is sealed in a polyethylene film bag, is placed for 6 months under the conditions that the temperature is 40±2° C. and the relative humidity is 75±5%, and is sampled at the end of the 1st Month, the 2nd Month, the 3rd Month and the 6th Month for detection. Revaprazan hydrochloride crystalline form IV is sealed in a polyethylene film bag, is placed for 6 months under the conditions that the temperature is 40±2° C. and the relative humidity is 75±5%, and is sampled at the end of the 1st Month, the 2nd Month, the 3rd Month and the 6th Month for detection. Revaprazan hydrochloride crystalline form V is sealed in a polyethylene film bag and is placed for 6 months under the condition that the temperature is 40±2° C. and the relative humidity is 75±5%, and is sampled at the end of the 1st month, the 2nd month, the 3rd month and the 6th month for detection, and the results are shown in Table 20."}, "[3]": {"test": "High humidity test (25° C., relative humidity 75±5%)", "format": "physicochemical", "settings": "for Appearance color / Purity (%) / Weight gain upon moisture absorption (%): 25° C., RH 75±5%", "experimental": "Revaprazan hydrochloride crystalline form I is placed in an incubator of 25° C. (relative humidity of 75±5%), and is sampled on the 5th day and 10th day for detection. Revaprazan hydrochloride crystalline form II is placed in an incubator of 25° C. (relative humidity of 75±5%), and is sampled on the 5th day and 10th day for detection. Revaprazan hydrochloride polymorph III is placed in an incubator of 25° C. (relative humidity of 75±5%), and is sampled on the 5th day and the 10th day for detection. Revaprazan hydrochloride crystalline form IV is placed in an incubator of 25° C. Revaprazan hydrochloride crystal form 4 is placed in an incubator of 25° C. (the relative humidity is 75±5%), and is sampled on the 5th day and the 10th day for detection."}, "[4]": {"test": "High temperature test (60° C. incubator)", "format": "physicochemical", "settings": "for Appearance color / Loss on drying (%) / Purity (%) / Relevant substances: 60° C., hydrochloride", "experimental": "Revaprazan hydrochloride crystalline form I is placed in a 60° C. incubator, and is sampled on the 5th day and 10th day for detection, and the results are shown in Table 2. Revaprazan hydrochloride crystalline form II is placed in a 60° C. incubator, and is sampled on the 5th day and 10th day for detection, and the results are shown in Table 6. Revaprazan hydrochloride polymorph III is placed in an incubator of 60° C., and is sampled on the 5th day and the 10th day for detection. Revaprazan hydrochloride crystalline form IV is placed in an incubator of 60° C., and is sampled on the 5th day and the 10th day for detection. Revaprazan hydrochloride crystal form 4 is placed in an incubator of 60° C.; and is sampled on the 5th day and the 10th day for detection, and the results are shown in Table 23."}, "[5]": {"settings": "general statement in background art; cited from earlier work"}},
  "note": "Counter-ions that a name gives are not always drawn.",
  "data": [
    {"smiles": "Cc1nc(Nc2ccc(F)cc2)nc(N2CCc3ccccc3C2C)c1C", "note": "(single isomer, unassigned) [revaprazan hydrochloride crystalline form V]", "values": [
      {"measurement": "Stability (conclusion in words)", "setting": "[1]; intense light illumination, no obvious changes in appearance color, loss on drying, purity, relevant substances", "result": "stable"},
      {"measurement": "Appearance color", "setting": "[1]; 5th day", "result": "White powder"},
      {"measurement": "Loss on drying (%)", "setting": "[1]; 5th day", "result": 0.27, "unit": "%"},
      {"measurement": "Purity (%)", "setting": "[1]; 5th day", "result": 99.95, "unit": "%"},
      {"measurement": "Relevant substances", "setting": "[1]; 5th day", "result": "Undetected"},
      {"measurement": "Appearance color", "setting": "[1]; 10th day", "result": "White powder"},
      {"measurement": "Loss on drying (%)", "setting": "[1]; 10th day", "result": 0.30, "unit": "%"},
      {"measurement": "Purity (%)", "setting": "[1]; 10th day", "result": 99.95, "unit": "%"},
      {"measurement": "Relevant substances", "setting": "[1]; 10th day", "result": "Undetected"},
      {"measurement": "Appearance color", "setting": "[1]; Day 0", "result": "White powder"},
      {"measurement": "Loss on drying (%)", "setting": "[1]; Day 0", "result": 0.24, "unit": "%"},
      {"measurement": "Purity (%)", "setting": "[1]; Day 0", "result": 99.94, "unit": "%"},
      {"measurement": "Relevant substances", "setting": "[1]; Day 0", "result": "Undetected"},
      {"measurement": "Appearance color", "setting": "[2]; 1st month", "result": "White powder"},
      {"measurement": "Purity (%)", "setting": "[2]; 1st month", "result": 99.98, "unit": "%"},
      {"measurement": "Relevant substances", "setting": "[2]; 1st month", "result": "Undetected"},
      {"measurement": "Appearance color", "setting": "[2]; 2nd month", "result": "White powder"},
      {"measurement": "Purity (%)", "setting": "[2]; 2nd month", "result": 99.95, "unit": "%"},
      {"measurement": "Relevant substances", "setting": "[2]; 2nd month", "result": "Undetected"},
      {"measurement": "Appearance color", "setting": "[2]; 3rd month", "result": "White powder"},
      {"measurement": "Purity (%)", "setting": "[2]; 3rd month", "result": 99.97, "unit": "%"},
      {"measurement": "Relevant substances", "setting": "[2]; 3rd month", "result": "Undetected"},
      {"measurement": "Appearance color", "setting": "[2]; 6th month", "result": "White powder"},
      {"measurement": "Purity (%)", "setting": "[2]; 6th month", "result": 99.94, "unit": "%"},
      {"measurement": "Relevant substances", "setting": "[2]; 6th month", "result": "Undetected"},
      {"measurement": "Appearance color", "setting": "[2]; Month 0", "result": "White powder"},
      {"measurement": "Purity (%)", "setting": "[2]; Month 0", "result": 99.94, "unit": "%"},
      {"measurement": "Relevant substances", "setting": "[2]; Month 0", "result": "Undetected"},
      {"measurement": "Stability (conclusion in words)", "setting": "[2]; accelerated test, no obvious changes in appearance color, purity, relevant substances", "result": "stable"},
      {"measurement": "Appearance color", "setting": "[3]; 5th day", "result": "White powder"},
      {"measurement": "Purity (%)", "setting": "[3]; 5th day, hydrochloride", "result": 99.94, "unit": "%"},
      {"measurement": "Weight gain upon moisture absorption (%)", "setting": "[3]; 5th day, hydrochloride", "result": 0.42, "unit": "%"},
      {"measurement": "Appearance color", "setting": "[3]; 10th day", "result": "White powder"},
      {"measurement": "Purity (%)", "setting": "[3]; 10th day, hydrochloride", "result": 99.96, "unit": "%"},
      {"measurement": "Weight gain upon moisture absorption (%)", "setting": "[3]; 10th day, hydrochloride", "result": 0.66, "unit": "%"},
      {"measurement": "Appearance color", "setting": "[3]; Day 0", "result": "White powder"},
      {"measurement": "Weight gain upon moisture absorption (%)", "setting": "[3]; Day 0", "result": 0, "unit": "%"},
      {"measurement": "Purity (%)", "setting": "[3]; Day 0, hydrochloride", "result": 99.94, "unit": "%"},
      {"measurement": "Weight gain upon moisture absorption (in words)", "setting": "[3]; high humidity condition", "result": "slight weight gain"},
      {"measurement": "Stability (conclusion in words)", "setting": "[3]; high humidity, no obvious changes in appearance color, purity, relevant substances", "result": "stable"},
      {"measurement": "Appearance color", "setting": "[4]; 5th day", "result": "White powder"},
      {"measurement": "Loss on drying (%)", "setting": "[4]; 5th day", "result": 0.30, "unit": "%"},
      {"measurement": "Purity (%)", "setting": "[4]; 5th day", "result": 99.95, "unit": "%"},
      {"measurement": "Relevant substances", "setting": "[4]; 5th day", "result": "Undetected"},
      {"measurement": "Appearance color", "setting": "[4]; 10th day", "result": "White powder"},
      {"measurement": "Loss on drying (%)", "setting": "[4]; 10th day", "result": 0.32, "unit": "%"},
      {"measurement": "Purity (%)", "setting": "[4]; 10th day", "result": 99.92, "unit": "%"},
      {"measurement": "Relevant substances", "setting": "[4]; 10th day", "result": "Undetected"},
      {"measurement": "Appearance color", "setting": "[4]; Day 0", "result": "White powder"},
      {"measurement": "Loss on drying (%)", "setting": "[4]; Day 0", "result": 0.29, "unit": "%"},
      {"measurement": "Purity (%)", "setting": "[4]; Day 0", "result": 99.94, "unit": "%"},
      {"measurement": "Relevant substances", "setting": "[4]; Day 0", "result": "Undetected"},
      {"measurement": "Stability (conclusion in words)", "setting": "[4]; high temperature, no obvious changes in appearance color, loss on drying, purity, relevant substances", "result": "stable"}
    ]},
    {"smiles": "Cc1nc(Nc2ccc(F)cc2)nc(N2CCc3ccccc3C2C)c1C", "note": "(stereo not drawn) [Revaprazan hydrochloride]", "values": [
      {"measurement": "Time to maximum plasma concentration", "setting": "[5]", "result": "about 1 h"}
    ]}
  ]
}
